Assay results reported in US20250018048A1, “FLUCONAZOLE-COX INHIBITOR HYBRIDS: A DUAL-ACTING CLASS OF ANTIFUNGAL AZOLES” (Ramot at Tel-Aviv University Ltd., priority 2022, published 2025).
≈ marks a conversion by molar mass, not a printed value.

What was measured:
Type in all cases: cell-based
C. guilliermondii T-47 = assay: MIC80 broth double-dilution assay; conditions: YPAD medium, 30° C., 24 h
Procedure: (§1) The antifungal activities of the 24 azole-COX inhibitor hybrids were evaluated against a panel of 16 representative strains of different species of the genus Candida. Candida species cause both superficial and systemic infections. The panel included strains of C. albicans, C. glabrata, C. parapsilosis, C. tropicalis, C. guilliermondii, C. dubliniensis, and C. auris (Table S2). To evaluate antifungal activity, the minimal inhibitory concentration 80% (MIC80) values were determined, which were defined as the lowest drug concentrations with turbidity (measured at OD600) less than or equal to that of specific 1:5 dilutions of the growth control. As controls, FLC and VOR, were tested.
(§2) C. albicans, C. glabrata, C. parapsilosis, C. guilliermondii, C. tropicalis, and C. dubliniensis MICs were determined using CLSI M27-A3 guidelines with minor modifications. Starter cultures were streaked from glycerol stock onto YPAD agar plates and grown for 24 h at 30° C. Colonies were suspended in 1 mL PBS and diluted to 1×10^−3 OD600 and then diluted 1:100 into fresh medium. Hybrids dissolved in DMSO were added to YPAD broth (32 μL stock solution in 1218 μL of YPAD broth), and serial double dilutions of hybrids in YPAD were prepared in flat-bottomed 96-well microplates (Corning) to enable testing of concentrations ranging from 64 μg/mL to 0.003 μg/mL. Control wells with yeast cells but no drug and blank wells containing only YPAD were prepared. An equal volume (100 μL) of yeast suspensions in YPAD broth was added to each well with the exceptions of the blank wells. MIC values (Tables S4-S6) were determined after 24 h at 30° C. by measuring the OD600 using a plate reader (Infinite M200 PRO, Tecan). MIC values were defined as the point at which the OD600 was reduced by >80% compared to the no-drug wells. Each concentration was tested in triplicate, and results were confirmed by two independent sets of experiments. FLC and VOR were used as control drugs.

C. albicans SN152 = assay: MIC80 broth double-dilution assay; conditions: YPAD medium, 30° C., 24 h; parent strain of the erg11ΔΔ/erg3ΔΔ mutant
Procedure: as §1
(§3) MIC80 values were determined using the broth microdilution method over a concentration range of 0.003-64 μg/mL. Orange circles represent C. albicans strains, yellow circles represent C. glabrata strains, and green circles represent C. parapsilosis, C. tropicalis, C. dubliniensis and C. auris. Cells were grown in YPAD medium at 30° C. (For C. auris strains 37° C.) 24 h. Each concentration was tested in triplicate, and results were confirmed in at least two independent experiments.
(§4) The clinically used FLC and VOR act primarily by preventing ergosterol biosynthesis via inhibition of CYP51. Analysis was done to determine whether fungal growth inhibition by the hybrids required the presence of the ERG11 gene that encodes for CYP51. The antifungal activities of hybrids 1 and 5 and of FLC and VOR were determined against an erg11ΔΔ/erg3ΔΔ mutant C. albicans strain and against C. albicans SN152 from which this double knockout strain was derived (Table S2). […] Yeast growth was followed at OD600 over 48 h in 96-well plates containing serial double dilutions of the tested hybrids.
as §2

C. auris ATCC MYA5001 = assay: MIC broth double-dilution assay with MTT (CLSI M27-A3); conditions: YPAD medium, 37° C., 24 h, growth score 0 or 1
Procedure: (§5) Minimal inhibitory concentration broth double-dilution assay: C. auris minimal inhibitory concentrations (MICs) were determined using CLSI M27-A3 guidelines with minor modifications. Starter cultures were streaked from glycerol stock onto YPAD agar plates and grown for 24 h at 37° C. Colonies were suspended in 1 mL PBS and diluted to 1×10^−3 optical density at 600 nm (OD600) and then diluted 1:100 into fresh medium. hybrids dissolved in DMSO were added to YPAD broth (32 μL stock solution in 1218 μL of YPAD broth), and serial double dilutions of hybrids in YPAD were prepared in flat-bottomed 96-well microplates (Corning) to enable testing of concentrations ranging from 64 μg/mL to 0.007 μg/mL. Control wells with yeast cells but no drug and blank wells containing only YPAD were prepared. An equal volume (100 μL) of yeast suspension in YPAD broth was added to each well with the exceptions of the blank wells. After incubation for 24 h at 37° C., MTT (50 μL of a 1 mg/mL solution in ddH2O) was added to each well followed by additional incubation at 37° C. for 2 h. MIC values (Table S3) were defined as the lowest concentration of an antifungal agent that caused a specified reduction in visible growth as per the CLSI M27-A3 protocol. The magnitude of reduction in visible growth was assessed using the following numerical scale: 0, optically clear; 1, slightly hazy; 2, prominent decrease (˜50%) in visible growth; 3, slight reduction in visible growth; and 4, no reduction in visible growth. The MIC was defined based on reduction in growth to 0 or 1. Results were confirmed in two independent experiments, and each concentration was tested in triplicate. FLC and VOR were used as control drugs.

C. auris ATCC MYA5002 = assay: as above; conditions: YPAD medium, 37° C., 24 h, growth score 0 or 1
Procedure: as §5

[1] = tested on: C. albicans 742 (erg11ΔΔ/erg3ΔΔ mutant C. albicans strain); assay: MIC80 broth double-dilution assay, strain lacking CYP51; conditions: YPAD medium, 30° C., 24 h; erg11ΔΔ/erg3ΔΔ mutant lacking CYP51
Procedure: as §1, §4, §2

C. albicans SC5314 = assay: MIC80 broth double-dilution assay; conditions: YPAD medium, 30° C., 24 h
Procedure: as §1, §3, §2

C. albicans P-87 = assay: MIC80 broth double-dilution assay; conditions: YPAD medium, 30° C., 24 h
Procedure: as §1, §3, §2

C. dubliniensis T-99 = assay: MIC80 broth double-dilution assay; conditions: YPAD medium, 30° C., 24 h
Procedure: as §1, §3, §2

C. albicans ATCC 24433 = assay: MIC80 broth double-dilution assay; conditions: YPAD medium, 30° C., 24 h
Procedure: as §1, §3, §2

C. tropicalis 660 = assay: MIC80 broth double-dilution assay; conditions: YPAD medium, 30° C., 24 h
Procedure: as §1, §3, §2

C. albicans ATCC 90028 = assay: MIC80 broth double-dilution assay; conditions: YPAD medium, 30° C., 24 h
Procedure: as §1, §3, §2

[2] = tested on: C. parapsilosis ATCC 22019; assay: MIC80 broth double-dilution assay; conditions: YPAD medium, 30° C., 24 h
Procedure: as §1, §3, §2

[3] = tested on: erg11ΔΔ/erg3ΔΔ mutant C. albicans; assay: Growth curve analysis of C. albicans lacking CYP51; conditions: entire range of concentrations (64 to 1 μg/mL), YPAD, 30° C., 48 h
Procedure: as §4
Cells of erg11ΔΔ/erg3ΔΔ mutant C. albicans were grown in YPAD media at 30° C. and treated with different concentrations of the tested hybrids. Growth was measured by recording the OD600 values every 40 minutes over a 48-h course on an automated plate reader.
Growth curve analyses: Growth curves were determined using the double-dilution method in 96-well plates. Starter cultures were streaked from glycerol stock onto YPAD agar plates and grown for 24 h at 30° C. Colonies were suspended in 1 mL PBS and diluted to 1×10^−3 OD600 and then diluted 1:100 into fresh medium. Hybrids dissolved in DMSO were added to YPAD broth (32 μL stock solution in 1218 μL of YPAD broth), and serial double dilutions of hybrids in YPAD were prepared in flat-bottomed 96-well microplates (Corning) to enable testing of concentrations ranging from 64 μg/mL to 1 μg/mL. Control wells with yeast cells but no drug (100% growth) and blank wells containing only YPAD (0% growth) were prepared. An equal volume (100 μL) of yeast suspensions in YPAD broth was added to each well with the exceptions of the blank wells. Growth was determined at 30° C. by measuring the OD600 using a plate reader (Infinite M200 PRO, Tecan) every 40 minutes over 48 h. Each concentration was tested in triplicate, and results were confirmed by two independent sets of experiments. FLC and VOR were used as control drugs.

Row | Structure (SMILES) | MIC80 against C. guilliermondii T-47 (C. guilliermondii T-47) [µg/mL] | MIC80 against C. albicans SN152 (C. albicans SN152) [µg/mL] | MIC against C. auris 5001 (C. auris ATCC MYA5001) [µg/mL] | MIC against C. auris 5002 (C. auris ATCC MYA5002) [µg/mL] | MIC80 against C. albicans 742 [1] [µg/mL] | MIC80 against C. albicans SC5314 (C. albicans SC5314) [µg/mL] | MIC80 against C. albicans P-87 (C. albicans P-87) [µg/mL] | MIC80 against C. dubliniensis T-99 (C. dubliniensis T-99) [µg/mL] | MIC80 against C. albicans 24433 (C. albicans ATCC 24433) [µg/mL] | MIC80 against C. tropicalis 660 (C. tropicalis 660) [µg/mL] | MIC80 against C. albicans 90028 (C. albicans ATCC 90028) [µg/mL] | MIC80 against C. parapsilosis 22019 [2] [µg/mL] | Effect on growth (OD600) of the double knockout mutant [3]
1 | O=C(NC[C@](O)(Cn1cncn1)c1ccc(F)cc1F)c1ccccc1O [Hybrid 21] | 1 (≈ 2.67 µM) | 0.12 (≈ 0.321 µM) | 0.25 (≈ 0.668 µM) | 8 (≈ 21.4 µM) | >64 | 0.12 (≈ 0.321 µM) | 0.12 (≈ 0.321 µM) | 2 (≈ 5.34 µM) | 0.12 (≈ 0.321 µM) | 0.12 (≈ 0.321 µM) | 0.25 (≈ 0.668 µM) | 1 (≈ 2.67 µM) | 
2 | CC(C(=O)O)c1ccc(-c2ccccc2)c(F)c1 (stereo not shown) [flurbiprofen] |  |  |  |  |  |  |  |  |  |  |  |  | Dose-dependent growth reduction
3 | COc1ccc2cc([C@@H](C)C(=O)NC[C@](O)(Cn3cncn3)c3ccc(F)cc3F)ccc2c1 [Hybrid 10] | 1 (≈ 2.14 µM) | 0.012 (≈ 0.0257 µM) | 0.5 (≈ 1.07 µM) | 16 (≈ 34.3 µM) | >64 | 0.12 (≈ 0.257 µM) | 0.25 (≈ 0.536 µM) | 2 (≈ 4.29 µM) | 0.25 (≈ 0.536 µM) | 4 (≈ 8.57 µM) | 0.12 (≈ 0.257 µM) | 1 (≈ 2.14 µM) | 
4 | CC(C)Cc1ccc(C(C)C(=O)O)cc1 (stereo not shown) [ibuprofen] |  |  |  |  |  |  |  |  |  |  |  |  | Dose-dependent growth reduction
5 | O=C(Cc1ccccc1Nc1c(Cl)cccc1Cl)NC[C@](O)(Cn1cncn1)c1ccc(F)cc1F [Hybrid 23] | 8 (≈ 15 µM) | 1 (≈ 1.88 µM) | 2 (≈ 3.76 µM) | 64 (≈ 120 µM) | >64 | 1 (≈ 1.88 µM) | 1 (≈ 1.88 µM) | 4 (≈ 7.51 µM) | 1 (≈ 1.88 µM) | >64 | 1 (≈ 1.88 µM) | 0.5 (≈ 0.939 µM) | 
6 | C[C@H](C(=O)NC[C@](O)(Cn1cncn1)c1ccc(F)cc1F)c1cccc(C(=O)c2ccccc2)c1 [Hybrid 13] | 32 (≈ 65.2 µM) | 2 (≈ 4.08 µM) |  |  | >64 | 2 (≈ 4.08 µM) | 4 (≈ 8.15 µM) | 64 (≈ 130 µM) | 4 (≈ 8.15 µM) | 16 (≈ 32.6 µM) | 2 (≈ 4.08 µM) | 8 (≈ 16.3 µM) | 
7 | O=C(NC[C@](O)(Cn1cncn1)c1ccc(F)cc1F)c1cccnc1Nc1cccc(C(F)(F)F)c1 [Hybrid 17] | 2 (≈ 3.86 µM) | 0.06 (≈ 0.116 µM) | 0.25 (≈ 0.482 µM) | 4 (≈ 7.72 µM) | 16 (≈ 30.9 µM) | 0.12 (≈ 0.231 µM) | 0.25 (≈ 0.482 µM) | 2 (≈ 3.86 µM) | 0.12 (≈ 0.231 µM) | 2 (≈ 3.86 µM) | 0.12 (≈ 0.231 µM) | 0.5 (≈ 0.964 µM) | 
8 | O=C(NC[C@](O)(Cn1cncn1)c1ccc(F)cc1F)c1cc(-c2ccc(F)cc2F)ccc1O [Hybrid 19] | 2 (≈ 4.11 µM) | 0.03 (≈ 0.0617 µM) | 0.12 (≈ 0.247 µM) | 2 (≈ 4.11 µM) | 64 (≈ 132 µM) | 0.06 (≈ 0.123 µM) | 0.03 (≈ 0.0617 µM) | 2 (≈ 4.11 µM) | 0.06 (≈ 0.123 µM) | 0.12 (≈ 0.247 µM) | 0.12 (≈ 0.247 µM) | 0.06 (≈ 0.123 µM) | 
9 | C[C@H](C(=O)NC[C@@](O)(Cn1cncn1)c1ccc(F)cc1F)c1ccc(-c2ccccc2)c(F)c1 [Hybrid 8] | 64 (≈ 133 µM) | 64 (≈ 133 µM) |  |  | >64 | 32 (≈ 66.6 µM) | 64 (≈ 133 µM) | 2 (≈ 4.16 µM) | >64 | >64 | 64 (≈ 133 µM) | 64 (≈ 133 µM) | 
